The values below come from EP4775582A1, “MACROCYCLIC COMPOUND AND ANTIBODY-DRUG CONJUGATE THEREOF” (Genfleet Therapeutics (Shanghai) Inc., priority 2023, dated 2025).

For one assay, the target named is KRAS WT-cRAF (Homo sapiens, UniProt P01116+P62937). The assay is described as follows: Assay for binding of KRAS to cRAF (HTRF, with Cyclophilin A), KRAS WT.
The next assay has as its system AsPC-1 p-ERK. The assay is described as follows: Cell p-ERK assay (HTRF), AsPC-1 cells. The following applies: Homo sapiens. The format is cell-based, human. In short, it runs like this:
(§1)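 AsPC-1 (10000/well) or NCI-H441 (20000/well) cells were seeded overnight and then exposed to compound for 3 h at 37 °C. Lysates were probed for ERK phospho-T202/Y204 by HTRF with a 4-hour antibody incubation. IC50 values came from four-parameter fits of inhibition against log concentration.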
On the technique in general: Time-resolved FRET reads energy transfer from a long-lived donor to a nearby acceptor.

The next assay addresses KRAS G12V-cRAF (Homo sapiens, UniProt P01116+P62937, G12V). The assay is described as follows: Assay for binding of KRAS to cRAF (HTRF, with Cyclophilin A), KRAS G12V.
In a further assay the test system is H441 p-ERK. Kind of assay: Cell p-ERK assay (HTRF), NCI-H441 cells. The format is cell-based, human. The following applies: Homo sapiens; NCI-H441 cells (KRAS G12V), 3 h incubation. In short, it runs like this: as §1
The test system of another assay is AsPC-1 cells. The assay is described as follows: 3D cell proliferation assay (CellTiter Glo-3D), AsPC-1. Type of assay: cell-based, human. The conditions noted are these: Homo sapiens, ASPC1, 120 h. The method, boiled down: (§2)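 Cells seeded at 800 per well (AsPC-1, NCI-H441) in 2% FBS medium and incubated overnight at 37 °C, 5% CO2. Compounds added next day from 10× stock, then 5 days' further culture. Viability read by CellTiter-Glo luminescence; IC50 from four-parameter fit of inhibition versus log concentration.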
(ATP-based viability assays read luminescence as a measure of living cells.)

The next assay relates to NCI-H441 cells. Kind of assay: 3D cell proliferation assay (CellTiter Glo-3D), NCI-H441. Type of assay: cell-based, human. The following applies: Homo sapiens, 120 h, NCI-H441 cells (KRAS G12V), 2% FBS, 5 days, read-out: H441 AP IC50. In short, it runs like this: as §2
[1] abbreviates: KRAS WT-cRAF binding assay(nM), GPPNP-KRAS WT, IC50 values.
Setting [2] is: ASPC1, AsPC-1 cells (KRAS G12D), 3 h incubation, read-out: AsPC-1 p-ERK IC50.
Setting [3] is: KRAS G12V-cRAF binding assay(nM), GPPNP-KRAS G12V, IC50 values.
[4] abbreviates: AsPC-1 cells (KRAS G12D), 3D, 2% FBS, 5 days, read-out: AsPC-1 AP IC50.
Where [5] appears, read: read-out: KRAS WT-cRAF binding assay, GPPNP-KRAS WT, IC50 values.
[6] abbreviates: read-out: KRAS G12V-cRAF binding assay, GPPNP-KRAS G12V, IC50 values.

Molecules are shown by their SMILES. Like-named read-outs stand apart in the source and are kept apart here.

Chain of KRAS WT-cRAF (P01116 1-188 isoform P01116-2): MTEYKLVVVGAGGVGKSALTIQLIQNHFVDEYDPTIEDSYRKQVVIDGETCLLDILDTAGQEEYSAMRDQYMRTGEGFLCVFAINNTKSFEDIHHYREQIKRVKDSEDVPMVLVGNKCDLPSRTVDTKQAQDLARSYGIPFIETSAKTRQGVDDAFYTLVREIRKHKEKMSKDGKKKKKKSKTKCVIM
Chain of KRAS WT-cRAF (P62937 whole entry): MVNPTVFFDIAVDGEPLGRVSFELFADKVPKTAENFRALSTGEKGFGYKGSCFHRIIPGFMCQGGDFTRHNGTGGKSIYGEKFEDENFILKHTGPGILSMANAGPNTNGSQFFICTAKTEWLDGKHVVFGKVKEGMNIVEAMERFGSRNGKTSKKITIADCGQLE
Chain of KRAS G12V-cRAF (P01116 1-188 isoform P01116-2 G12V): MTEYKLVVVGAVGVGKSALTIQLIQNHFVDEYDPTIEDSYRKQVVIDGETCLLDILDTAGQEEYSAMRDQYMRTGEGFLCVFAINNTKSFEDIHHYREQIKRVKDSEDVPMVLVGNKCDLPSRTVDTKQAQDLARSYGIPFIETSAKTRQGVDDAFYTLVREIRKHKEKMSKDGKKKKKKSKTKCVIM
Chain of KRAS G12V-cRAF (P62937 whole entry): as the sequence (P62937 whole entry) above
Procedure for KRAS G12V-cRAF: (§3) The plate was centrifuged at 1000 rpm for 1 min and then incubated in the thermostatic incubator at 20 °C for 30 min. […] The plate was centrifuged at 1000 rpm for 1 min and then incubated in the thermostatic incubator at 20 °C for 60 min. […] The working solution was added to the aforementioned assay plate at 5 µL/well. The plate was centrifuged at 1000 rpm for 1 min and then incubated in the thermostatic incubator at 20 °C for 60 min.
Procedure for KRAS WT-cRAF: as §3

Regarding `CCn1c(-c2cc(C#CCN3CCS(=O)(=O)CC3)cnc2C(C)O)c2c3cc(ccc31)-c1csc(n1)CC(NC(=O)C1C(C)C1C)C(=O)N1CCCC(N1)C(=O)OCC(C)(C)C2` (atropisomer, axis not shown; (Ra)) [Compound Z60, (1r,2R,3S)-N-((6^3S,4S,Z)-(Ra)-1^2-(5-(3-(1,1-dioxidothiomorpholino)prop-1-yn-1-yl)-2-((S)-1-hydroxyethyl)pyridin-3-yl)-1^1-ethyl-10,10-dimethyl-5,7-dioxo-6^1,6^2,6^3,6^4,6^5,6^6-hexahydro-1^1H-8-oxa-2(4,2)-thiazola-1(5,3)-indola-6(1,3)-pyridazinacycloundecaphane-4-yl)-2,3-dimethylcyclopropane-1-carboxamide], the half-maximal inhibitory concentration (IC50) stood at 15.3 nM on KRAS WT-cRAF (setting [1]); 0.28 nM in the assay with AsPC-1 p-ERK (setting [2]); 15.2 nM at KRAS G12V-cRAF (setting [3]); 0.15 nM in the assay on H441 p-ERK; 0.32 nM in the assay on AsPC-1 cells (setting [4]); 0.16 nM with NCI-H441 cells.
Regarding `CCn1c(-c2cc(C#CCN3CCC(C#N)CC3)cnc2C(C)OC)c2c3cc(ccc31)-c1coc(n1)CC(NC(=O)C1C3COCC31)C(=O)N1CCCC(N1)C(=O)OCC(C)(C)C2` (atropisomer, axis not shown; (Ra)) [Compound Z168, (1R,5S,6r)-N-((6^3S,4S,Z)-(Ra)-1^2-(5-(3-(4-cyanopiperidin-1-yl)prop-1-yn-1-yl)-2-((S)-1-methoxyethyl)-pyridin-3-yl)-1^1-ethyl-10,10-dimethyl-5,7-dioxo-6^1,6^2,6^3,6^4,6^5,6^6-hexahydro-1^1H-8-oxa-2(4,2)-oxazola-1(5,3)-indola-6(1,3)-pyridazinacycloundecaphane-4-yl)-3-oxabicyclo[3.1.0]hexane-6-carboxamide], the IC50 was 16.4 nM on KRAS WT-cRAF (setting [1]), 0.03 nM with AsPC-1 p-ERK (setting [2]), 7.75 nM on KRAS G12V-cRAF (setting [3]) and 0.09 nM in the assay on H441 p-ERK.
As for `CCn1c(-c2cc(C#CCN3CCS(=O)(=O)CC3)cnc2C(C)OC)c2c3cc(ccc31)-c1csc(n1)CC(NC(=O)C1C(C)C1C(=O)NCCO)C(=O)N1CCCC(N1)C(=O)OCC(C)(C)C2` (atropisomer, axis not shown; (Ra)) [Compound Z13-2, (1S,2S,3R)-N^1-((6^3S,4S,Z)-(Ra)-1^2-(5-(3-(1,1-dioxidothiomorpholino)prop-1-yn-1-yl)-2-((S)-1-methoxyethyl)pyridin-3-yl)-1^1-ethyl-10,10-dimethyl-5,7-dioxo-6^1,6^2,6^3,6^4,6^5,6^6-hexahydro-1^1H-8-oxa-2(4,2)-thiazola-1(5,3)-indola-6(1,3)-pyridazinacycloundecaphane-4-yl)-N^2-(2-hydroxyethyl)-3-methylcyclopropane-1,2-dicarboxamide], the half-inhibitory concentration (IC50) on KRAS WT-cRAF (setting [1]) came to 22.6 nM; on KRAS G12V-cRAF (setting [3]), 5.1 nM.
`CCn1c(-c2cc(C#CCN3CCC(C#N)(CN)CC3)c[n+]([O-])c2[C@H](C)OC)c2c3cc(ccc31)-c1csc(n1)C[C@H](NC(=O)[C@H]1[C@H](C)[C@@H]1C)C(=O)N1CCC[C@H](N1)C(=O)OCC(C)(C)C2` (atropisomer, axis not shown; (Ra)) [Compound Z57, 5-(3-(4-(aminomethyl)-4-cyanopiperidin-1-yl)prop-1-yn-1-yl)-(Ra)-3-((6^3S,4S,Z)-4-((1r,2R,3S)-2,3-dimethylcyclopropane-1-carboxamido)-1^1-ethyl-10,10-dimethyl-5,7-dioxo-6^1,6^2,6^3,6^4,6^5,6^6-hexahydro-1^1H-8-oxa-2(4,2)-thiazola-1(5,3)-indola-6(1,3)-pyridazinacycloundecaphane-1^2-yl)-2-((S)-1-methoxyethyl)pyridine 1-oxide]: the IC50 on KRAS WT-cRAF (setting [5]) worked out at 38.8 nM; with AsPC-1 p-ERK (setting [2]), 0.81 nM; at KRAS G12V-cRAF (setting [6]) it was 6.3 nM; in the assay on H441 p-ERK, 1.47 nM; in the assay on AsPC-1 cells (setting [4]), 0.47 nM; in the assay on NCI-H441 cells, 1.34 nM.
Consider `CCn1c(-c2cc(C#CCN3CCS(=O)(=O)CC3)cnc2[C@H](C)OC)c2c3cc(ccc31)-c1csc(n1)[C@@H](N)[C@H](NC(=O)[C@H]1[C@H](C)[C@@H]1C)C(=O)N1CCC[C@H](N1)C(=O)OCC(C)(C)C2` (atropisomer, axis not shown; (Ra)) [Compound Z65, (1r,2R,3S)-N-((6^3S,3S,4S,Z)-3-amino-(Ra)-1^2-(5-(3-(1,1-dioxidothiomorpholino)prop-1-yn-1-yl)-2-((S)-1-methoxyethyl)pyridin-3-yl)-1^1-ethyl-10,10-dimethyl-5,7-dioxo-6^1,6^2,6^3,6^4,6^5,6^6-hexahydro-11H-8-oxa-2(4,2)-thiazola-1(5,3)-indola-6(1,3)-pyridazinacycloundecaphane-4-yl)-2,3-dimethylcyclopropane-1-carboxamide], for which the IC50 at KRAS WT-cRAF (setting [5]) came out at 22.9 nM; in the assay with AsPC-1 p-ERK (ASPC1, 3 h, read-out: AsPC-1 p-ERK IC50(nM)), 0.06 nM; at KRAS G12V-cRAF (setting [6]), 5 nM; in the assay on H441 p-ERK, 0.14 nM; in the assay on AsPC-1 cells (read-out: AsPC-1 AP IC50(nM)), 0.15 nM; in the assay on NCI-H441 cells, 0.25 nM.
Take `CCn1c(-c2cc(C#CCN3CCC(C#N)(CO)CC3)cnc2[C@H](C)OC)c2c3cc(ccc31)-c1csc(n1)C[C@H](NC(=O)[C@H]1[C@@H]3COC[C@@H]31)C(=O)N1CCC[C@H](N1)C(=O)OCC(C)(C)C2` (atropisomer, axis not shown) [Compound Z39]: the IC50 at KRAS WT-cRAF (setting [5]) came to 22.1 nM; at KRAS G12V-cRAF (setting [6]), 9.1 nM.
Regarding `COCCn1c(-c2cc(C#CCN3CCN(C(=O)CO)CC3)cnc2C(C)OC)c2c3cc(ccc31)-c1csc(n1)CC(NC(=O)C1C3COCC31)C(=O)N1CCCC(N1)C(=O)OCC(C)(C)C2` (atropisomer, axis not shown; (Ra)) [Compound Z31-1, (1R,5S,6r)-N-((6^3S,4S,Z)-(Ra)-1^2-(5-(3-(4-(2-hydroxyacetyl)piperazin-1-yl)prop-1-yn-1-yl)-2-((S)-1-methoxyethyl)pyridin-3-yl)-1^1-(methoxyethyl)-10,10-dimethyl-5,7-dioxo-6^1,6^2,6^3,6^4,6^5,6^6-hexahydro-1^1H-8-oxa-2(4,2)-thiazola-1(5,3)-indola-6(1,3)-pyridazinacycloundecaphane-4-yl)-3-oxabicyclo[3.1.0]hexane-6-carboxamide], the IC50 on KRAS WT-cRAF (setting [1]) stood at 75 nM; in the assay with AsPC-1 p-ERK (setting [2]), 2.65 nM; on KRAS G12V-cRAF (setting [3]), 14.7 nM; in the assay on H441 p-ERK, 0.92 nM; in the assay on AsPC-1 cells (setting [4]) it was 2.09 nM; in the assay on NCI-H441 cells it was 1.07 nM.
For `CCn1c(-c2cc(C#CCN3CCC(C#N)CC3)cnc2C(C)OC)c2c3cc(ccc31)-c1coc(n1)CC(NC(=O)C1C(C)C1C)C(=O)N1CCCC(N1)C(=O)OCC(C)(C)C2` (atropisomer, axis not shown; (Ra)) [Compound Z155, (1r,2R,3S)-N-((6^3S,4S,Z)-(Ra)^2-(5-(3-(4-cyanopiperidin-1-yl)prop-1-yn-1-yl)-2-((S)-1-methoxyethyl)pyridin-3-yl)-1^1-ethyl-10,10-dimethyl-5,7-dioxo-6^1,6^2,6^3,6^4,6^5,6^6-hexahydro-1^1H-8-oxa-2(4,2)-oxazola-1(5,3)-indola-6(1,3)-pyridazinacycloundecaphan-4-yl)-2,3-dimethylcyclopropanecarboxamide], the results for the IC50 at KRAS WT-cRAF (setting [1]) and at KRAS G12V-cRAF (setting [3]) were 18.7 nM and 8.29 nM, respectively.
With `CCn1c(-c2cc(C#CCN3CCS(=O)(=O)CC3)cnc2C(C)OC)c2c3cc(ccc31)-c1csc(n1)CC(NC(=O)C1C(C)C1C(=O)NCCO)C(=O)N1CCCC(N1)C(=O)OCC(C)(C)C2` (atropisomer, axis not shown; (Ra)) [Compound Z13-1, (1R,2R,3S)-N^1-((6^3S,4S,Z)-(Ra)-1^2-(5-(3-(1,1-dioxidothiomorpholino)prop-1-yn-1-yl)-2-((S)-1-methoxyethyl)pyridin-3-yl)-1^1-ethyl-10,10-dimethyl-5,7-dioxo-6^1,6^2,6^3,6^4,6^5,6^6-hexahydro-1^1H-8-oxa-2(4,2)-thiazola-1(5,3)-indola-6(1,3)-pyridazinacycloundecaphane-4-yl)-N^2-(2-hydroxyethyl)-3-methylcyclopropane-1,2-dicarboxamide], the half-maximal inhibitory concentration (IC50) at KRAS WT-cRAF (setting [1]) amounted to 21.8 nM; at KRAS G12V-cRAF (setting [3]), 5.2 nM; with AsPC-1 cells (setting [4]), 3.7 nM; in the assay with NCI-H441 cells, 3.36 nM.
`CCn1c(-c2cc(C#CCN3CCC(C#N)CC3)cnc2[C@H](C)NC)c2c3cc(ccc31)-c1csc(n1)C[C@H](NC(=O)[C@H]1[C@@H]3COC[C@@H]31)C(=O)N1CCC[C@H](N1)C(=O)OCC(C)(C)C2` (atropisomer, axis not shown; (Ra)) [Compound Z169-1, (1R,5S,6r)-N-((6^3S,4S,Z)-(Ra)-1^2-(5-(3-(4-cyanopiperidin-1-yl)prop-1-yn-1-yl)-2-((S)-1-(methylamino)ethyl)pyridin-3-yl)-1^1-ethyl-10,10-dimethyl-5,7-dioxo-6^1,6^2,6^3,6^4,6^5,6^6-hexahydro-1^1H-8-oxa-2(4,2)-thiazola-1(5,3)-indola-6(1,3)-pyridazinacycloundecaphane-4-yl)-3-oxabicyclo[3.1.0]hexane-6-carboxamide]: the 50% inhibitory concentration (IC50) was found to be 58.2 nM at KRAS WT-cRAF (setting [5]) and 17.5 nM at KRAS G12V-cRAF (setting [6]).

By IC50 is commonly meant the point on the concentration scale where inhibition reaches its midpoint.
